According to patent US7579353B2, “Pyridinone derivatives against malaria” (Glaxo Group Limited, priority 2005, dated 2009):

Tested on: Plasmodium falciparum
Experiment: In vitro anti-malarial activity against Plasmodium falciparum, IC50 assay / [3H]-hypoxanthine incorporation assay
Type: cell-based
Settings: Erythrocyte, parasitized red blood cells, 48 hours
Procedure: In Vitro Anti-malarial Activity Against Plasmodium falciparum
IC50 Assay/[^3H]-Hypoxanthine Assay
Plasmodium falciparum strains.
The culture medium comprised RPMI 1640 with 25 mM HEPES, sodium bicarbonate and glutamine (GIBCO™ cat. ref.: 52400), supplemented with 10% of pooled human sera AB (Irvine Scientific, cat. ref.: 5009) and HT supplement (0.15 mM hypoxanthine and 24 μM thymidine), (GIBCO™ cat. ref.: 41065). Human sera were decomplemented 30 min. at 56° C., aliquoted and stored frozen at −20° C. until use in this culture medium.
Red blood cells O+ stock suspensions were prepared from whole blood bags coming from incomplete blood donation, provided by the Spanish Red Cross (<25 days after sampling). This “whole blood” was aliquoted and stored at 4° C.
To prepare red blood cells for the assay, the whole blood was centrifuged and washed 3 times with RPMI without serum. The upper phase, containing white blood cells was removed. The washed red blood cells were kept as a 50% suspension in complete medium. The prepared cells were stored at 4° C. and were employed in the assay at any time up to 4 days after preparation.
Test compounds were dissolved at 2 mg/ml in 100% DMSO on the day of the assay. If necessary, complete dissolution was achieved by gentle heating (the mixture was heated at a temperature <37° C.) and sonication (sonication bath).
For IC50 determinations, 10 serial 2-fold dilutions were prepared in complete medium in the presence of a constant amount of DMSO.
Plasmodium falciparum strains were maintained in complete medium at an hematocrit of 5% in continuous culture using a method adapted from Trager and Jensen (1, 2).
The parasitemia was calculated by counting the percentage of parasitized erythrocytes by optical microscopy. Thin films of blood were made every day from each culture flask, fixed with methanol and stained for 10 min. in Giemsa (Merck, cat ref.: 1.09204) at 10% in buffered water pH 7.2. The glass slides were observed and counted with an optical microscope (Nikon, Eclipse E200) equipped with a 100× immersion oil objective.
The culture was maintained at an hematocrit of 5%, with a daily change of medium and was diluted when parasitemia had reached about 5%.
[^3H] Hypoxanthine incorporation assay was conducted using a method adapted from Desjardins et al. (3). The assays were performed in 96 wells flat bottom microplates.
1. Serial dilutions of the test compounds (50 μl of a 5× solution/well) were deposited in duplicate. Compounds of the invention were tested in this assay. Chloroquine and Atovaquone were used as control compounds for each assay.
3. [^3H]-Hypoxanthine (Amersham Biosciences, cat. ref.: TRK74) was added extemporaneously to the inoculum suspension at a concentration of 1 μCi/ml (equating to […]). 200 μl of the resulting suspension was distributed into each well (other than the control well H12 described below) leading to a final volume of 250 μl per well, at 2% of hematocrit and 0.5% of parasitemia/well.
4. In each plate, 2 columns were reserved for control wells: • Column 11: Positive control wells: PRBCs with 0.2% DMSO—(i) to determine DMSO solvent effect on parasite growth (at a final concentration of 0.2%) and (ii) to compare with cultures treated with test compounds. • Column 12 (comprising wells A12-H12): • A12-D12—Background value wells: Uninfected RBCs—blank control to obtain the background reading from RBCs without parasites. • E12-G12—Solvent effect wells: PRBCs without DMSO—to determine DMSO solvent effect on PRBCs by comparing these wells with column 11 wells. • H12-Non-radioactive well: PRBCs with cold hypoxanthine—(i) to carry out a thin blood film to determine parasitemia value after incubation by microscopy and (ii) to ensure that the parasites have grown properly during the assay. (200 μl of inoculum suspension was prepared as described above (Items 2 and 3) but with non-tritiated hypoxanthine instead of [3H]-hypoxanthine, then added to this well to a final volume of 250 μl). […]

IC50	Compound
< 0.125 µg/mL	Cc1[nH]c(C)c(-c2ccc(-c3cccc(Cl)c3)nc2)c(=O)c1Cl [Example 34, 5-Chloro-6′-(3-chlorophenyl)-2,6-dimethyl-3,3′-bipyridin-4(1H)-one]
< 0.125 µg/mL	Cc1[nH]c(C)c(-c2ccc(-c3ccccc3Cl)nc2)c(=O)c1Cl [Example 35, 5-Chloro-6′-(2-chlorophenyl)-2,6-dimethyl-3,3′-bipyridin-4(1H)-one]
< 0.125 µg/mL	Cc1[nH]c(C)c(-c2ccc(-c3ccc(OC(F)(F)F)cc3)nc2)c(=O)c1Cl.Cl [Example 38, 5-Chloro-2,6-dimethyl-6′-{4-[(trifluoromethyl)oxy]phenyl}-3,3′-bipyridin-4(1H)-one]
< 0.125 µg/mL	CCCCc1ccc(-c2ccc(-c3c(C)[nH]c(C)c(Br)c3=O)cn2)cc1.Cl [Example 39, 5-Bromo-6′-(4-n-butylphenyl)-2,6-dimethyl-3,3′-bipyridin-4(1H)-one]
< 0.125 µg/mL	Cc1[nH]c(C)c(-c2ccc(C#Cc3ccc(C(F)(F)F)cc3)nc2)c(=O)c1Br [Example 40, 5-Bromo-2,6-dimethyl-6′-{[4-(trifluoromethyl)phenyl]ethynyl}-3,3′-bipyridin-4(1H)-one]
< 0.125 µg/mL	Cc1[nH]c(C)c(-c2ccc(CCc3ccc(F)cc3F)nc2)c(=O)c1Cl [Example 46, 5-Chloro-6′-{2-[2,4-difluorophenyl]ethyl}-2,6-dimethyl-3,3′-bipyridin-4(1H)-one]
< 0.125 µg/mL	Cc1[nH]c(C)c(-c2ccc(CCc3ccc(C(F)(F)F)cc3)cn2)c(=O)c1Cl [Example 52, 5′-Chloro-2′,6′-dimethyl-5-{2-[4-(trifluoromethyl)phenyl]ethyl}-2,3′-bipyridin-4′(1′H)-one]

More lines, now with the values behind:

Compound	IC50
Cc1[nH]c(C)c(-c2ccc(-c3ccc(OC(F)(F)F)cc3)nc2)c(=O)c1Cl [Example 27, 5-Chloro-2,6-dimethyl-6′-{4-[(trifluoromethyl)oxy]phenyl}-3,3′-bipyridin-4(1H)-one]	< 0.125 µg/mL
Cc1[nH]c(C)c(-c2ccc(-c3cccc(OC(F)(F)F)c3)nc2)c(=O)c1Cl [Example 28, 5-Chloro-2,6-dimethyl-6′-{3-[(trifluoromethyl)oxy]phenyl}-3,3′-bipyridin-4(1H)-one]	< 0.125 µg/mL
Cc1[nH]c(C)c(-c2ccc(-c3ccccc3OC(F)(F)F)nc2)c(=O)c1Cl [Example 29, 5-Chloro-2,6-dimethyl-6′-{2-[(trifluoromethyl)oxy]phenyl}-3,3′-bipyridin-4(1H)-one]	< 0.125 µg/mL
Cc1[nH]c(C)c(-c2ccc(-c3ccc(C(F)(F)F)cc3)nc2)c(=O)c1Cl [Example 30, 5-Chloro-2,6-dimethyl-6′-{4-[trifluoromethyl]phenyl}-3,3′-bipyridin-4(1H)-one]	< 0.125 µg/mL
Cc1[nH]c(C)c(-c2ccc(-c3cccc(C(F)(F)F)c3)nc2)c(=O)c1Cl [Example 31, 5-Chloro-2,6-dimethyl-6′-{3-[trifluoromethyl]phenyl}-3,3′-bipyridin-4(1H)-one]	< 0.125 µg/mL
Cc1[nH]c(C)c(-c2ccc(-c3ccccc3C(F)(F)F)nc2)c(=O)c1Cl [Example 32, 5-Chloro-2,6-dimethyl-6′-{2-[trifluoromethyl]phenyl}-3,3′-bipyridin-4(1H)-one]	< 0.125 µg/mL
Cc1[nH]c(C)c(-c2ccc(-c3ccc(Cl)cc3)nc2)c(=O)c1Cl [Example 33, 5-Chloro-6′-(4-chlorophenyl)-2,6-dimethyl-3,3′-bipyridin-4(1H)-one]	< 0.125 µg/mL
Cc1[nH]c(C)c(-c2ccc(C#Cc3ccc(C(F)(F)F)cc3)nc2)c(=O)c1Cl [Example 41, 5-Chloro-2,6-dimethyl-6′-{[4-(trifluoromethyl)phenyl]ethynyl}-3,3′-bipyridin-4(1H)-one]	< 0.125 µg/mL
Cc1[nH]c(C)c(-c2ccc(CCc3cccc(C(F)(F)F)c3)nc2)c(=O)c1Br [Example 43, 5-Bromo-2,6-dimethyl-6′-{2-[3-(trifluoromethyl)phenyl]ethyl}-3,3′-bipyridin-4(1H)-one]	< 0.125 µg/mL
CCCCCCCc1ccc(-c2c(C)[nH]c(C)c(Cl)c2=O)cn1 [Example 47, 5-Chloro-6′-(n-heptyl)-2,6-dimethyl-3,3′-bipyridin-4(1H)-one]	< 0.125 µg/mL
Cc1[nH]c(C)c(-c2ccc(-c3ccc4c(c3)OCO4)nc2)c(=O)c1Cl [Example 54]	< 0.125 µg/mL
Cc1[nH]c(C)c(-c2ccc(-c3ccc(C(F)(F)F)cc3Cl)nc2)c(=O)c1Cl [Example 55, 5-chloro-6′-[2-chloro-4-(trifluoromethyl)phenyl]-2,6-dimethyl-3,3′-bipyridin-4(1H)-one]	< 0.125 µg/mL
Cc1[nH]c(C)c(-c2ccc(-c3ccc(OCC(F)(F)F)cc3)nc2)c(=O)c1Cl [Example 62, 5-Chloro-2,6-dimethyl-6′-{4-[2,2,2-trifluoroethoxy]phenyl}-3,3′-bipyridin-4(1H)-one]	< 0.125 µg/mL
Cc1[nH]c(C)c(-c2ccc(-c3ccc(C(F)F)cc3)nc2)c(=O)c1Cl [Example 63, 5-Chloro-2,6-dimethyl-6′-{4-[difluoromethyl]phenyl}-3,3′-bipyridin-4(1H)-one]	< 0.125 µg/mL
Cc1[nH]c(C)c(-c2cnc(-c3ccc(C(F)(F)F)cc3)nc2)c(=O)c1Cl [Example 64, 3-Chloro-2,6-dimethyl-5-(5-(2-(4-trifluoromethylphenyl))pyrimidinyl)pyridin-4(1H)-one]	< 0.125 µg/mL
Cc1[nH]c(C)c(-c2ccc(-c3ccc(N(C)C)c(Br)c3)nc2)c(=O)c1Br [Example 71, 5-Bromo-6′-[3-bromo-4-(dimethylamino)phenyl]-2,6-dimethyl-3,3′-bipyridin-4(1H)one]	< 0.125 µg/mL
